According to ChEMBL document CHEMBL1201862, “PubChem BioAssay data set” (2004):
Active and inactive are the calls of the source.

Key:
[1] = target: T1, Leucine aminopeptidase (Plasmodium falciparum 3D7, UniProt Q8IL11); assay: P. falciparum M17LAP inhibitors, primary screen, biochemical, fluorogenic H-Leu-NHMec substrate, 1536-well (AID 1619); type: functional
T1 sequence (Q8IL11 whole entry): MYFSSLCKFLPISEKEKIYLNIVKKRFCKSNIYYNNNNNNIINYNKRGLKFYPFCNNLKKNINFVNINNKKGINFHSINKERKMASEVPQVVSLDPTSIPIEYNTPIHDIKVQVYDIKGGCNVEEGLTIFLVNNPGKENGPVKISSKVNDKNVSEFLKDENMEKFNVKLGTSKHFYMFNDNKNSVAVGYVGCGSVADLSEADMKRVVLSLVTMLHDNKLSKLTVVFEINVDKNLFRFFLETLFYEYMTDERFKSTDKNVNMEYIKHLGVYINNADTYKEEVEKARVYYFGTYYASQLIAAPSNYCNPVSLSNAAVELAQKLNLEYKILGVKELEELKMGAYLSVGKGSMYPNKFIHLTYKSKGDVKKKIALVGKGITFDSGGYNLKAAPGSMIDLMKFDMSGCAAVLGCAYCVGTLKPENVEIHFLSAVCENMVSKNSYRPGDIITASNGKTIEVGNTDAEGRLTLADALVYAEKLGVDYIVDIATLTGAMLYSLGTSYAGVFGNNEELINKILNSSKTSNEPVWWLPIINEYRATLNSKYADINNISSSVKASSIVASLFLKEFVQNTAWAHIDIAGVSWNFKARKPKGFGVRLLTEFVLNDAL

[2] = cells; type: functional
[3] = cytotoxicity toward NIH3T3 fibroblasts, dose response, counter-screen, cell-based, ATP luminescence, mouse fibroblasts (AID 2010); type: functional;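 note: cells exposed to compound for about 90 hours before reading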
[4] = inhibitors of intracellular T. cruzi replication, confirmation, NIH3T3 host cells, beta-gal luminescence (AID 2044); type: functional, cell-based;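 note: intracellular parasites grown in NIH/3T3 mouse fibroblasts as host cells; luminescent beta-galactosidase reporter signal from transgenic T. cruzi replicating inside host cells; inhibitors lower the luminescence signal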
[5] = microbe, parasite or virus in culture; type: functional; conditions: Mycobacterium tuberculosis
[6] = target: Cytochrome P450 2C9 (Homo sapiens, UniProt P11712)
Chain of Cytochrome P450 2C9 (P11712 whole entry): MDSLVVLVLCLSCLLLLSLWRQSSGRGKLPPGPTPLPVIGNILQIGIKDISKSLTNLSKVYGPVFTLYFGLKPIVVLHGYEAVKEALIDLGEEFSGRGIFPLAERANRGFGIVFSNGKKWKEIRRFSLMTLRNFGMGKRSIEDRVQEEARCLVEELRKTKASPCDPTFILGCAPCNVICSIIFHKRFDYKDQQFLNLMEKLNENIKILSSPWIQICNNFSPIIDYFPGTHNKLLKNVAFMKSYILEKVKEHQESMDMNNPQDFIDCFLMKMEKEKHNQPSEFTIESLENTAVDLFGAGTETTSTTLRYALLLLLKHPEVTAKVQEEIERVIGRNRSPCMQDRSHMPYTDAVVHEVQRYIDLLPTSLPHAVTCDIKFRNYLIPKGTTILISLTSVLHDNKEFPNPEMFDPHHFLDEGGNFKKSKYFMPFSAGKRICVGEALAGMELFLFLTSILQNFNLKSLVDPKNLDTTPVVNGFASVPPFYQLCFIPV

[7] = target: T2, Calpain-2 catalytic subunit (Sus scrofa, UniProt P43367); assay: pig calpain II inhibitor potency, dose response, biochemical, fluorogenic peptide substrate (AID 1420); type: functional
T2 sequence (P43367 whole entry): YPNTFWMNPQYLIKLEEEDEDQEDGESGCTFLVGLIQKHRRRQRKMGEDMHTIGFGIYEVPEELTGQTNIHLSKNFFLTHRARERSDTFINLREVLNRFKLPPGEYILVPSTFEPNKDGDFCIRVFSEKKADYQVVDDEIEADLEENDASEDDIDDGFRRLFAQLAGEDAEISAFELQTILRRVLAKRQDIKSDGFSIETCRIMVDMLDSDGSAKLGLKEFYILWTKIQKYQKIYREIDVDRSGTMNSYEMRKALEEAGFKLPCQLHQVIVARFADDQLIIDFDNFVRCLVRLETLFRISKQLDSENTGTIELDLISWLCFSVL

[8] = tested on: INS1; assay: beta cell apoptosis inhibitors, cytokine rescue, dose response, luminescence, retest (AID 449756); type: functional, cell-based; conditions: Rattus norvegicus;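 note: cell death triggered by IL-1 beta plus TNF-alpha plus IFN-gamma mixture; protective hits raise ATP signal compared with cytokine alone wells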
[9] = inhibitors of SNCA 5'UTR-driven reporter translation, confirmation, H4 neuroglioma cells, luminescence (AID 1988); type: functional, cell-based
[10] = inhibitors of firefly luciferase expression or activity, dose response, H4 neuroglioma cells, luminescence (AID 1990); type: functional, cell-based
[11] = Luminescence Cell-Based Dose Response HTS to Identify Inhibitors of 5'UTR Stem-Loop Driven Prion Protein mRNA Translation in H4 Neuroglioblastoma Cells. [Related pubchem assays: 1827 (Project Summary), 1813 (Primary HTS)]; type: functional
[12] = target: Large T antigen (Simian virus 40, UniProt P03070); type: functional, Betapolyomavirus macacae;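 note: Confirmatory-stage PubChem screen for compounds that inhibit SV40 T antigen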
Chain of Large T antigen (P03070 whole entry): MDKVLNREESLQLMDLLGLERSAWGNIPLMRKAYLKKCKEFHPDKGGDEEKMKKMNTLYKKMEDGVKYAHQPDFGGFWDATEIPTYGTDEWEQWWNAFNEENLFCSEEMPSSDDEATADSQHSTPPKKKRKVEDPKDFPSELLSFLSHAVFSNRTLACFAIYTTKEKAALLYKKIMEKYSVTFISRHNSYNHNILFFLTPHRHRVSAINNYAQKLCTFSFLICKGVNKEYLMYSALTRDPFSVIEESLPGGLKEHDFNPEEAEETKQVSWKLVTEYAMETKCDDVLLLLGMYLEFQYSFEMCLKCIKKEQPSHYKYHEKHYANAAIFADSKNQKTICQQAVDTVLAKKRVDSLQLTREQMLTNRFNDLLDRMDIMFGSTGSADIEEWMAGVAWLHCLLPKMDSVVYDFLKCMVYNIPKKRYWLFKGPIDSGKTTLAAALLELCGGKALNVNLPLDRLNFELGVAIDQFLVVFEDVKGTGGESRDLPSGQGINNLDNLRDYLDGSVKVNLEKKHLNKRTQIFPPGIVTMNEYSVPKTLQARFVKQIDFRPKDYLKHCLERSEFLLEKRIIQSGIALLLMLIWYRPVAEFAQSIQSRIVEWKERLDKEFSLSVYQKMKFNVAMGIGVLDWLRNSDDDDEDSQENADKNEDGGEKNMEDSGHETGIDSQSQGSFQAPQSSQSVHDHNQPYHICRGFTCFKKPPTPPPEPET

[13] = target: T3, Streptokinase A (Streptococcus pyogenes serotype M1, UniProt P10520); assay: S. pyogenes streptokinase expression inhibitors, potency, dose response, plasminogen activation absorbance, OD405 (AID 1914); type: functional, Streptococcus pyogenes M1 GAS;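 note: secreted streptokinase activity via plasminogen activation per viability signal from cell pellet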
T3 sequence (P10520 whole entry): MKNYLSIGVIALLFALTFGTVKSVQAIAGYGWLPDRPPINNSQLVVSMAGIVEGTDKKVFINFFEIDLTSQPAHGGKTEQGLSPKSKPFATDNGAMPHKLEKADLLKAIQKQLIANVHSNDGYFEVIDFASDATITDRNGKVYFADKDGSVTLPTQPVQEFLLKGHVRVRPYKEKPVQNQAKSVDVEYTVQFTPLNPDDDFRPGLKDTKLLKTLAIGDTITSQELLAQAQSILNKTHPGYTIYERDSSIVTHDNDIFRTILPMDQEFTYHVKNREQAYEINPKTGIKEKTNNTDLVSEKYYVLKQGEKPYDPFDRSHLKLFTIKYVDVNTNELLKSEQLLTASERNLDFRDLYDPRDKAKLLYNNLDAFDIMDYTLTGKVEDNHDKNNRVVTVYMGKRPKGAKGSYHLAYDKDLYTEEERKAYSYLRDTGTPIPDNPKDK

[14] = growth suppression of PTEN-null colon cells, dose response, cell-based, HCT116 PTEN knockout (AID 1047); type: functional;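 note: HCT116 colon tumor cells with PTEN knocked out; cells exposed to compound for 60 hours before readout; potency for loss of cell viability measured by luminescence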
[15] = tested on: Streptococcus; assay: Group A Streptococcus viability loss, dose response, counter-screen for streptokinase expression inhibitor project, luminescence, BacTiterGlo (AID 1915); type: functional, organism-based;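 note: potency for reduction of bacterial viability or growth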
[16] = tested on: Streptococcus sp. 'group A'; assay: growth inhibition of control SK(-) GAS strain, dose response, counter-screen for streptokinase expression inhibitor project, luminescence, kanamycin, BacTiterGlo, confirmation (AID 1900); type: functional, organism-based
[17] = growth suppression of beta-catenin-knockout colon cells, dose response, cell-based, HCT116, human colon tumor (AID 1045); type: functional;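 note: HCT116 colon tumor cells with beta catenin knocked out; cells exposed to compound for 60 hours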
[18] = HEp-2 cell cytotoxicity, dose response, cytotoxicity control for RSV inhibitor project, HTS (AID 2410); type: functional; conditions: human respiratory syncytial virus
[19] = C. albicans growth with fluconazole, confirmation, fluorescence, retest (AID 2467); type: functional, cell-based
[20] = NIH-3T3 fibroblast cytotoxicity, dose response, cytotoxicity control, cell-based, fluorescence, Alamar Blue, secondary assay (AID 2327); type: functional;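 note: NIH-3T3 mouse fibroblasts cultured with fluconazole at 8 µg/mL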
[21] = target: FAD-linked sulfhydryl oxidase ALR (Homo sapiens, UniProt P55789); assay: inhibitors of human ALR sulfhydryl oxidase, dose response, biochemical, H2O2 detection, luminescence, cherry-pick (AID 493248)
Chain of FAD-linked sulfhydryl oxidase ALR (P55789 whole entry): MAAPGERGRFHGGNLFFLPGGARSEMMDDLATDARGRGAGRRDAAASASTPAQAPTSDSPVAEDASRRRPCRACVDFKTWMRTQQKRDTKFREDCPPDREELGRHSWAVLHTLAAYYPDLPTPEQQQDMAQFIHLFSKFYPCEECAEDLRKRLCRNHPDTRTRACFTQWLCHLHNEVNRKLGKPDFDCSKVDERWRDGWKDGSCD

[22] = target: T4, Heat shock factor protein 1 (Mus musculus, UniProt P38532); assay: inhibition of MG132-induced HSE-luciferase signal, confirmation, cell-based, NIH3T3, luminescence, dose retest (AID 2382); type: functional;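 note: NIH3T3 fibroblasts with HSF1-driven luciferase reporter stressed by proteasome inhibitor MG132; luminescence from HSF1-driven luciferase expression after 8 hours of MG132 stress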
T4 sequence (P38532 whole entry): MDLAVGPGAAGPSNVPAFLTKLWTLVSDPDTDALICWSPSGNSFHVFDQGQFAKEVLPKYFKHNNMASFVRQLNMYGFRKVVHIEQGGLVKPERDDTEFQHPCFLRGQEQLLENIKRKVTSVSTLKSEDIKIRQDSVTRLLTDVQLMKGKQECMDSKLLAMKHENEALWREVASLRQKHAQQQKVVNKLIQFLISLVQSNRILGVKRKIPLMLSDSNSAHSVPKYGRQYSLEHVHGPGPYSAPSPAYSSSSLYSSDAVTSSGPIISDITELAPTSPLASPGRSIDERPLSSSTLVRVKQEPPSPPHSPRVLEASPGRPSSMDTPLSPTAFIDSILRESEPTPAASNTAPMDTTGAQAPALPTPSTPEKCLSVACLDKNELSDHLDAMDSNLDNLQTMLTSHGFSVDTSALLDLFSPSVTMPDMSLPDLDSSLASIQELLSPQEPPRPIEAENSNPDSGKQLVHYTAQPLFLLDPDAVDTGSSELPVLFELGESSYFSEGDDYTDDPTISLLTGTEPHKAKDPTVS

[23] = P. falciparum Dd2 growth inhibitors, dose response, SYBR Green, cherry-picked samples (AID 1159567); type: functional, cell-based

## Cc1cc(C)cc(NC(=O)C2CCN(c3nc(C)cc(C)n3)CC2)c1
[1]
  IC50: 105 µM (active)

## O=C(OCC(=O)N1CCN(c2ccccc2)CC1)c1ccc2ccccc2n1
[2]
  IC50: 16.3 µM (active)

## CN(CCCNC(=O)c1cc2c(Cl)nc3ccccc3c2s1)Cc1ccccc1
[3]
  EC50: > 60 µM (not active)
[4]
  EC50: 0.771 µM (active)
[5]
  CC50: 22.2 µM (active)

## COc1cccc2cc(C(=O)CC3(O)C(=O)N(Cc4ccccc4)c4ccccc43)c(=O)oc12 (configuration not stated)
[6]
  AC50: inconclusive

## Clc1ccccc1-c1nnc2sc(-c3cccs3)nn12
[7]
  IC50: 2.83 µM (not active)

## OC(COc1cccc2ccccc12)CN1CCN(c2ccccc2Cl)CC1 (configuration not stated)
[7]
  IC50: 3.82 µM (not active)

## CN(CC(=O)Nc1ccc(N2CCOCC2)cc1)Cc1cc(=O)n2ccsc2n1
[7]
  IC50: < 0.4 µM (not active)

## O=C(OCC#CCSc1nc2ccccc2o1)c1ccco1
[2]
  IC50: 10 µM (active)

## COc1ccc(C)cc1Nc1n[n+](-c2ccccc2)c(-c2c(Cl)cccc2Cl)s1
[8]
  AC50: 4.16 µM (active)
[9]
  EC50: > 120 µM (not active)
[10]
  EC50: > 120 µM (not active)
[5]
  CC50: 9.91 µM (active)
[11]
  EC50: 12.6 µM (active)

## O=C(Oc1cccnc1)c1ccc(Cl)c(Cl)c1
[2]
  IC50: 1.31 µM (active)

## O=C(CN1C(=O)c2ccccc2C1=O)Nc1ccc(-c2nc3ccccc3o2)cc1
[7]
  IC50: 17.9 µM (not active)

## N#Cc1c(Cl)cccc1Oc1ccc(S(=O)(=O)Nc2ccccc2)cc1
[7]
  IC50: > 50 µM (not active)

## CCOC(=O)CNc1c(-c2ccc(O)cc2)nc2ccccn12
[12]
  IC50: 14.7 µM (active)

## Cc1cccc(C)c1OCC(O)CN1CCC(CN2C(=O)c3cccc4cccc(c34)C2=O)CC1 (configuration not stated)
[13]
  EC50: 38.2 µM (active)
[14]
  EC50: 11.7 µM (active)
[15]
  EC50: 16.7 µM (active)
[16]
  EC50: 9.04 µM (active)
[5]
  CC50: 23.4 µM (active)
[17]
  EC50: 9.53 µM (active)
[18]
  CC50: 7.63 µM (active)

## CC1CCCN(Cc2c(O)ccc3c(O)c(-c4nc5ccccc5s4)c(=N)oc23)C1 (configuration not stated)
[19]
  EC50: > 38 µM (not active)
[20]
  EC50: 76.2 µM (active)
[14]
  EC50: 13.9 µM (active)
[5]
  CC50: 17.2 µM (active)
[17]
  EC50: 18.9 µM (active)

## CC(C)Cn1c(N)c(C(=O)COC(=O)/C=C/c2cccs2)c(=O)n(C)c1=O
[7]
  IC50: > 50 µM (not active)

## COc1ccc(OCCCn2cccc2/C=C2/C(=N)N3OC(C)=CC3=NC2=O)cc1
[1]
  IC50: 10.9 µM (active)

## Cc1ccc(NC(=O)CCSc2nnc(Cc3ccccc3)o2)cc1
[2]
  IC50: 18.2 µM (active)

## S=C(NCc1ccco1)N/N=C/c1ccccc1Cl
[7]
  IC50: 2.44 µM (not active)

## O=C(/C=C/c1c(F)cccc1Cl)c1ccc(F)cc1
[5]
  CC50: > 40 µM (active)

## CCN(CC)c1ccc(NC(=O)CCNS(=O)(=O)c2ccc3c(c2)CCC(=O)N3)c(C)c1
[12]
  IC50: 42.6 µM (active)
[21]
  AC50: 1.09 µM (active)

## FC(F)(F)C1CCCN(c2nsc3ccccc23)C1 (configuration not stated)
[12]
  IC50: 13 µM (active)

## C/C(=N/NC(=O)c1cc(-c2cccc([N+](=O)[O-])c2)[nH]n1)c1ccc(Cl)cc1
[7]
  IC50: 13.6 µM (not active)

## Cc1ccc(NC(=O)c2ccc(C(C)(C)C)cc2)cc1-n1cnnn1
[7]
  IC50: 0.895 µM (not active)

## O=C(CNCc1ccccc1)Nc1ccc(Oc2ccccc2)cc1
[7]
  IC50: > 50 µM (not active)

## Nc1nc2ccc(O)cc2s1
[12]
  IC50: 3.5 µM (active)

## C(=N\Nc1ccc2ccccc2n1)/c1ccc2c(c1)OCCO2
[22]
  EC50: < 0.16 µM (active)
[5]
  CC50: > 40 µM (active)

## Cc1ccc(-n2c(=O)c3c4c(sc3n3c(S)nnc23)CCC4)cc1
[12]
  IC50: 30.9 µM (active)

## Oc1cc(-c2ccccc2)nc2nc(SCc3ccccc3)nn12
[1]
  IC50: 5.04 µM (active)

## CNc1ccccc1C(=O)OC(C)C(=O)Nc1ccc(Cl)cn1 (configuration not stated)
[5]
  CC50: 25.3 µM (active)

## N#C[C@@H]1[C@H](c2ccccc2/C=C/c2ccccc2)[C@H](CO)N1S(=O)(=O)c1ccc(F)cc1
[23]
  AC50: 6.19 µM (active)

## Oc1oc(-c2ccco2)nc1/C=N/c1cccc(Cl)c1
[2]
  IC50: > 50 µM (active)

## CCOC(=O)Cn1c(-c2ccccc2)ccc(C#N)c1=O
[2]
  IC50: 7.5 µM (active)

## C=CCn1c(Sc2nc(C)cs2)nc2c1c(=O)[nH]c(=O)n2C
[7]
  IC50: > 50 µM (not active)
[18]
  CC50: 32.4 µM (active)

## N#CC1=C2SCN(Cc3ccco3)CN2C(=O)CC1c1c(F)cccc1Cl (configuration not stated)
[12]
  IC50: 84.4 µM (active)

## Nc1c2c(nc3ccccc13)CCC[C@H]2O
[6]
  AC50: inconclusive

## CC(C)(C)OC(=O)[C@H]1[C@H](c2ccc([N+](=O)[O-])cc2)C2(C(=O)c3ccccc3C2=O)C2c3ccccc3C=NN21 (some centres not stated)
[1]
  IC50: 2.23 µM (active)

## C=C(C)C(=O)N1CC2(CC(c3cccc(NC(=O)c4ccccc4)c3)=NO2)C[C@@H]1C(N)=O (some centres not stated)
[6]
  AC50: inconclusive
